Source: patent publication US6242445A, “Benzimidazole derivative” (Kureha Chemical Industry Co., Ltd., priority 1998, dated 2001)

Assays:
[1] = J. Clin. Pharmacol., 30: 155 to 158, 1990; cited from earlier work
[2] = target: T1, angiotensin II receptor subtype 1 (AT1) (Oryctolagus cuniculus, UniProt P34976); assay: Binding assay, angiotensin II receptor subtype 1 (AT1); parameters: species or system rabbits; inhibition: dose or concentration left out as unconfirmed; settings: 3 h
T1 construct: from adrenal glands in rabbits; from tissue; host or cells: adrenal glands of rabbits
T1 sequence (P34976 1-359): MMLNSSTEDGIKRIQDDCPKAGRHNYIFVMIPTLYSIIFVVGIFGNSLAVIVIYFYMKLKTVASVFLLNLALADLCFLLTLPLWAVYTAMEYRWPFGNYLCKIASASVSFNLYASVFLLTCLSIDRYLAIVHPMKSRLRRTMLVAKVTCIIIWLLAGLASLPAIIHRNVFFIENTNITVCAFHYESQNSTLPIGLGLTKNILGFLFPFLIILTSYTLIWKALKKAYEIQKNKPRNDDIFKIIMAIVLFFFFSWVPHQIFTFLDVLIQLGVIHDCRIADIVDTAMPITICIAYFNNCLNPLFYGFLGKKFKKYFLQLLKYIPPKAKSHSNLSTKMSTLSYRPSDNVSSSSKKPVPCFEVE
Method: (§1) In this Example, a binding assay was carried out. That is, the affinity to the angiotensin II receptor subtype 1 orsubtype 2 was evaluated in accordance with the method described in Biochem. Pharmacol., 33, 4057-4062 (1984).
(§2) Specifically, the measurement of the total binding in the presence of each drug was performed as follows:
(§3) A mixture (final volume=0.25 ml) of a drug in a given concentration (the drug was dissolved in DMSO, and diluted to a double volume with a buffer attached to a drug discovery system to prepare a sample for the assay; 0.025 ml), a tracer (0.025 ml), and receptors (0.2 ml) was incubated [in the case of the angiotensin II receptor subtype 1 (AT1), at room temperature for 3 hours, and in the case of the subtype 2 (AT2), at 37° C. for 1 hour]. Then, the reaction mixture was filtered with suction (a GF/C filter was used in AT1, and a GF/B filter was used in AT2). The filter papers after filtration with suction (the tracer bound to the receptors) were counted by a γ-well counter (ARC-500, Aloka). The non-specific bindings were measured by repeating the above method, except that a large excess amount of a displacer was added. The specific binding of the drug in the given concentration was calculated by subtracting the non-specific binding from the total binding, respectively.
tracer: ^3 H-angiotensin II

[3] = target: T2, angiotensin II receptor subtype 2 (AT2) (Bos taurus, UniProt G5E6F7); assay: Binding assay, angiotensin II receptor subtype 2 (AT2); parameters: species or system bovine; dose or concentration left out as unconfirmed; settings: 1 h; tracer 125I-Tyr4-angiotensin II
T2 construct: from cerebellar cortex in bovine; from tissue; host or cells: cerebellar cortex, bovine
T2 sequence (G5E6F7 1-362): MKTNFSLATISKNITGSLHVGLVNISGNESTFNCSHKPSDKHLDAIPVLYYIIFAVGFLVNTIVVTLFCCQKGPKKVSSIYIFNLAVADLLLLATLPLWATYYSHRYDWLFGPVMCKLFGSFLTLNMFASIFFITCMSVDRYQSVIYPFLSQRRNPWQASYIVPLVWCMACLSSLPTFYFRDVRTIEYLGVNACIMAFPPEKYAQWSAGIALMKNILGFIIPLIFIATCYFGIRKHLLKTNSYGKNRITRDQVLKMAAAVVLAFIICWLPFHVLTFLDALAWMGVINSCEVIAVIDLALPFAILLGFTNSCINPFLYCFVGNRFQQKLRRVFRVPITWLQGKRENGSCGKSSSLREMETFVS
Method: as §1, §2, §3
In AT1 and AT2, the percentages found to inhibit the bindings of radioactive ligands (tracer) to receptors by the drugs to be tested (IC50 value of concentration to show 50% inhibition, […]) were measured, using the drugs to be tested and control drugs in the given concentration.
receptor: from cerebellar cortex in bovine
tracer: ^125 I-Tyr^4 -angiotensin II
control drug: angiotensin II (human)
(displacer): angiotensin II (human)

[4] = system: ICR female mice; assay: Acute toxicity (single oral administration); assay type: in vivo; settings: 500 mg/kg single oral; deaths observed for 6 days
Method: Acute toxicity was evaluated in this Example. As a compound to be examined, 2-ethoxy-1-[[4'-(2"-N,N-dimethylamino-ethoxycarbonyl)phenyl]methyl]-1H-benzimidazole-6-carboxylic acid morpholide (Compound No. 13) prepared in Example 6 was used.
Five-week-old ICR female mice (5 mice per group) were bredfor acclimation for a week. Then, Compound No. 13 was dissolved or suspended in 0.5% methylcellulose aqueous solution, and orally administered to the mice in a single dosage (500 mg/kg). […] Further, as to Compound No. 55, Compound No. 57, Compound No. 59, and Compound No. 65 prepared in Examples 26, 28, 31, and 23, respectively, acute toxicity was also evaluated.

SMILES	inhibition [2]	inhibition [3]	other results
C[C@H](CS)C(=O)N1CCC[C@H]1C(=O)O [Captopril]			Blood pressure [1]: the blood pressure is lowered; progress of the kidney diseases [1]: the progress of the kidney diseases is ameliorated
CCOc1nc2ccc(C(=O)N3CCCCC3)cc2n1Cc1ccc(C(=O)OCCN(C)C)cc1 [Compound No. 55, 2-ethoxy-1-[[4'-(2"-N,N-dimethylaminoethoxycarbonyl)phenyl]methyl]-1H-benzimidazole-6-carboxylic acid piperidinamide]			Number of deaths/number of survivals [4]: 0/5
CCOc1nc2ccc(C(=O)N3CCCCCC3)cc2n1Cc1ccc(C(=O)OCCN(C)C)cc1 [Compound No. 59, 2-ethoxy-1-[[4'-(2"-N,N-dimethylaminoethoxycarbonyl)phenyl]methyl]-1H-benzimidazole-6-carboxylic acid perhydroazepinamide]			Number of deaths/number of survivals [4]: 0/5
CCOc1nc2ccc(C(=O)N3CCCC3)cc2n1Cc1ccc(C(=O)OCCN(C)C)cc1 [Compound No. 65, 2-ethoxy-1-[[4'-[2"-(dimethylamino)-ethoxycarbonyl]phenyl]methyl]-1H-benzimidazole-6-carboxylic acid pyrrolidinamide]			Number of deaths/number of survivals [4]: 0/5
CCOC(=O)[C@H](CCc1ccccc1)N[C@@H](C)C(=O)N1CCC[C@H]1C(=O)O [Enalapril]			Blood pressure [1]: the blood pressure is lowered; progress of the kidney diseases [1]: the progress of the kidney diseases is ameliorated

Now from value to compound, other results behind:

inhibition [2]	inhibition [3]	SMILES	other results
45%	0%	CCOc1nc2ccc(C(=O)N3CCOCC3)cc2n1Cc1ccc(C(=O)O)cc1 [Compound No. 1, 2-ethoxy-1-[(4'-carboxyphenyl)methyl]-1H-benzimidazole-6-carboxylic acid morpholide]	
45%	0%	CCCOc1nc2ccc(C(=O)N3CCOCC3)cc2n1Cc1ccc(C(=O)O)cc1 [Compound No. 3, 2-n-propoxy-1-[(4'-carboxyphenyl)methyl]-1H-benzimidazole-6-carboxylic acid morpholide]	
45%	0%	CCCCOc1nc2ccc(C(=O)N3CCOCC3)cc2n1Cc1ccc(C(=O)O)cc1 [Compound No. 4]	
50%	0%	CCOc1nc2ccc(C(=O)N3CCCCC3)cc2n1Cc1ccc(C(=O)O)cc1 [Compound No. 5, 2-ethoxy-1-[(4'-carboxyphenyl)methyl]-1H-benzimidazole-6-carboxylic acid piperidinamide]	
50%	0%	CCOc1nc2ccc(C(=O)N3CCCC3)cc2n1Cc1ccc(C(=O)O)cc1 [Compound No. 6, 2-ethoxy-1-[(4'-carboxyphenyl)methyl]-1H-benzimidazole-6-carboxylic acid pyrrolidinamide]	
0%	0%	CCOc1nc2ccc(C(=O)N3CCOCC3)cc2n1Cc1ccc(O)cc1 [compound 2]	
